According to patent US8501750B2, “Heterocyclic compound and use thereof” (Takeda Pharmaceutical Company Limited, priority 2007, dated 2013):
Where a name gives a salt, the structure may show the parent alone. Read-outs that look alike come from different tables or passages of the source.

Key:
[1] = biological target: AT1 receptor (Homo sapiens (Human), UniProt P30556); experiment: AT1 receptor binding inhibitory action
[2] = biological target: PPARγ (Homo sapiens (Human), UniProt P37231); experiment: PPARγ activating action (luciferase reporter in PPARγ:RXRα:4ERPP/CHO-K1 cells); format: cell-based; details: CHO-K1, 24 h, read-out: PPARγ activating action (activation % (1 μM))
Procedure: Then the medium was removed from the 96-well half area white plate, 45 μl of Ham's F12 medium containing 0.1% fatty acid-free bovine serum albumin (BSA) and 5 μl of test compound were added, and the cells were cultured in a CO2 gas incubator at 37° C. for 1 day. The medium was removed and 20 μl of PicaGene 7.5 [manufactured by Dainippon Ink and Chemicals Corporation, Japan] diluted 2-fold with HBSS (HANKS' BALANCED SALT SOLUTION) [manufactured by BIO WHITTAKER, USA] was added. After stirring, the luciferase activity was determined using 1420 ARVO Multilabel Counter [manufactured by PerkinElmer, USA]. […] A CHO-K1 cell cultured in a 150 cm^2 cell culture flask [manufactured by Corning Costar Corporation, USA] containing Ham's F12 medium [manufactured by INVITROGEN, USA] supplemented with 10% fetal bovine serum [manufactured by INVITROGEN, USA] was scraped by treating with 0.5 g/L trypsin-0.2 g/L EDTA (ethylenediaminetetraacetic acid) [manufactured by Life Technologies, Inc., USA], and then the cell was washed with PBS (Phosphate-buffered saline) [manufactured by INVITROGEN, USA], centrifuged (1000 rpm, 5 minutes) and suspended in PBS. Subsequently, DNA was introduced into the cell under the conditions shown below using GENE PULSER [manufactured by Bio-Rad Laboratories, USA]. […] Subsequently, the cell was transferred into a F12 medium containing 10% fetal bovine serum and cultured for 24 hours, and then the cell was scraped again and centrifuged, and then suspended in Ham's F12 medium containing 10% fetal bovine serum supplemented with 500 μg/ml of Geneticin [manufactured by INVITROGEN, USA] and 250 μg/ml of Zeocin [manufactured by INVITROGEN, USA]. The obtained suspension was diluted to the density of 10^4 cells/ml and inoculated in a 96-well plate [manufactured by Corning Costar Corporation, USA], which was cultured in a CO2 gas incubator at 37° C., whereby obtaining a Geneticin- and Zeocin-resistant transformant.

[3] = test compound 1 μM, luciferase activity relative to control compound X (1 μM) = 100%, non-administration group = 0%

Sequence of PPARγ (P37231 29-505): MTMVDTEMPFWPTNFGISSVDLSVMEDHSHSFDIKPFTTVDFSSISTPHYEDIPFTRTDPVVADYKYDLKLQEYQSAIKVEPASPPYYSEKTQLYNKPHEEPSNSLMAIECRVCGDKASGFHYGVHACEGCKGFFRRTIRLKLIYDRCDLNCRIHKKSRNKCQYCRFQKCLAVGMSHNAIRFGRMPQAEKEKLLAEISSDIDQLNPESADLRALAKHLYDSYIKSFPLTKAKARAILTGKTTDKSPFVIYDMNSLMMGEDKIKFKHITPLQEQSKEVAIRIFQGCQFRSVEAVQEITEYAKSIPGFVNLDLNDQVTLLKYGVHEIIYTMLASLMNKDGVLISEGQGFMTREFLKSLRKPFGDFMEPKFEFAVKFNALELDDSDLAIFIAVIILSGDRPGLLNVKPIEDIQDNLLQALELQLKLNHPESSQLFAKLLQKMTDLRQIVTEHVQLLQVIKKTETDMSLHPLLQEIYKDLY
Sequence of PPARγ (P19793 whole entry partner): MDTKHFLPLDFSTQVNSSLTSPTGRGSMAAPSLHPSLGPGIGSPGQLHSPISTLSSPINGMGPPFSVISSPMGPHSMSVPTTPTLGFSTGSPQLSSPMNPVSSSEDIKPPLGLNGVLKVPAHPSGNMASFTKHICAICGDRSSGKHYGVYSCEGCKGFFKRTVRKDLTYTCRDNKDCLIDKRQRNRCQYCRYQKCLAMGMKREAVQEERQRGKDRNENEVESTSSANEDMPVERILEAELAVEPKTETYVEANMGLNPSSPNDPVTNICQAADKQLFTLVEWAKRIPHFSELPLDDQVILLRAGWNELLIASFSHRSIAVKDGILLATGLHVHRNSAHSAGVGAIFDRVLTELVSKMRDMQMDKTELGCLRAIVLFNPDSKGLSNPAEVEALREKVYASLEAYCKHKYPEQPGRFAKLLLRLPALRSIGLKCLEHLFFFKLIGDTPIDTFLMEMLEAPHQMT
Sequence of AT1 receptor (P30556 whole entry): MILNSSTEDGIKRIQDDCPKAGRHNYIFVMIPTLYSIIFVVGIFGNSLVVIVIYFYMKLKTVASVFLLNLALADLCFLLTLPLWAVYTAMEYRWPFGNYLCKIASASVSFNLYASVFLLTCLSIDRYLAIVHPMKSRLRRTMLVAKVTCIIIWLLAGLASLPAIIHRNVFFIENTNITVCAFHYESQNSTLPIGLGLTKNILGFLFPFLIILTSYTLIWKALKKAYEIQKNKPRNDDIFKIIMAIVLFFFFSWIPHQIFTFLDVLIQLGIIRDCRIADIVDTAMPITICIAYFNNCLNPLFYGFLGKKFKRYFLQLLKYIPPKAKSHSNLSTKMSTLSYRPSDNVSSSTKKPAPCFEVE

SMILES | IC50 [1] [nM] | activation at 1 µM [2, 3] [%] | activation at 1 µM [2] [%]
CCc1cc2c(=O)n(CCN3CCOCC3)c(=O)n(Cc3ccc(-c4ccccc4-c4noc(=O)[nH]4)cc3F)c2s1 [Ex. 117, 6-ethyl-1-{[3-fluoro-2′-(5-oxo-4,5-dihydro-1,2,4-oxadiazol-3-yl)biphenyl-4-yl]methyl}-3-(2-morpholin-4-ylethyl)thieno[2,3-d]pyrimidine-2,4(1H,3H)-dione] | 1.8 | 62 | –
COc1ccc(C(=O)Cn2c(=O)c3cc(C4CC4)sc3n(Cc3ccc(-c4ccccc4-c4noc(O)n4)cc3F)c2=O)cc1 [Ex. 105, 6-cyclopropyl-1-{[3-fluoro-2′-(5-oxo-4,5-dihydro-1,2,4-oxadiazol-3-yl)biphenyl-4-yl]methyl}-3-[2-(4-methoxyphenyl)-2-oxoethyl]thieno[2,3-d]pyrimidine-2,4(1H,3H)-dione potassium salt] | 1 | – | 34
CC(C)(C)C(O)Cn1c(=O)c2cc(C3CC3)sc2n(Cc2ccc(-c3ccccc3-c3noc(=O)[nH]3)cc2)c1=O (stereo not shown) [Ex. 143, 6-cyclopropyl-3-(2-hydroxy-3,3-dimethylbutyl)-1-{[2′-(5-oxo-4,5-dihydro-1,2,4-oxadiazol-3-yl)biphenyl-4-yl]methyl}thieno[2,3-d]pyrimidine-2,4(1H,3H)-dione] | 1.4 | 45 | –
CCc1cc2c(=O)n(CC(=O)C(C)(C)COC(C)=O)c(=O)n(Cc3ccc(-c4ccccc4-c4noc(=O)[nH]4)cc3)c2s1 [Ex. 148, 4-[6-ethyl-2,4-dioxo-1-{[2′-(5-oxo-4,5-dihydro-1,2,4-oxadiazol-3-yl)biphenyl-4-yl]methyl}-1,4-dihydrothieno[2,3-d]pyrimidin-3(2H)-yl]-2,2-dimethyl-3-oxobutyl acetate] | 1.5 | 33 | –
Cc1ccc(CCn2c(=O)c3cc(CC(F)(F)F)sc3n(Cc3ccc(-c4ccccc4-c4noc(=O)[nH]4)cc3)c2=O)cc1 [Ex. 59, 3-[2-(4-methylphenyl)ethyl]-1-{[2′-(5-oxo-4,5-dihydro-1,2,4-oxadiazol-3-yl)biphenyl-4-yl]methyl}-6-(2,2,2-trifluoroethyl)thieno[2,3-d]pyrimidine-2,4(1H,3H)-dione] | 1.2 | 58 | –
CCc1cc2c(=O)n(CC(=O)C(C)(C)C)c(=O)n(Cc3ccc(-c4ccccc4-c4noc(=O)[nH]4)cc3)c2s1 [Ex. 131, 3-(3,3-dimethyl-2-oxobutyl)-6-ethyl-1-{[2′-(5-oxo-4,5-dihydro-1,2,4-oxadiazol-3-yl)biphenyl-4-yl]methyl}thieno[2,3-d]pyrimidine-2,4(1H,3H)-dione] | 1.2 | 72 | –
CCCc1cc2c(=O)n(CC(=O)c3ccc(OC)cc3)c(=O)n(Cc3ccc(-c4ccccc4-c4noc(=O)[nH]4)cc3F)c2s1 [Ex. 158, 1-{[3-fluoro-2′-(5-oxo-4,5-dihydro-1,2,4-oxadiazol-3-yl)biphenyl-4-yl]methyl}-3-[2-(4-methoxyphenyl)-2-oxoethyl]-6-propylthieno[2,3-d]pyrimidine-2,4(1H,3H)-dione] | 1.7 | 30 | –
CCc1cc2c(=O)n(CC(O)c3ccc(OC)cc3)c(=O)n(Cc3ccc(-c4ccccc4-c4noc(=O)[nH]4)cc3F)c2s1 (stereo not shown) [Ex. 152, 6-ethyl-1-{[3-fluoro-2′-(5-oxo-4,5-dihydro-1,2,4-oxadiazol-3-yl)biphenyl-4-yl]methyl}-3-[2-hydroxy-2-(4-methoxyphenyl)ethyl]thieno[2,3-d]pyrimidine-2,4(1H,3H)-dione] | 1.5 | 40 | –
COc1ccccc1C(=O)Cn1c(=O)c2cc(CC(F)(F)F)sc2n(Cc2c(F)cc(-c3ccccc3-c3noc(O)n3)cc2F)c1=O [Ex. 127, 1-{[3,5-difluoro-2′-(5-oxo-4,5-dihydro-1,2,4-oxadiazol-3-yl)biphenyl-4-yl]methyl}-3-[2-(2-methoxyphenyl)-2-oxoethyl]-6-(2,2,2-trifluoroethyl)thieno[2,3-d]pyrimidine-2,4(1H,3H)-dione potassium salt] | 1.4 | – | 53
CCc1cc2c(=O)n(CC(=O)c3sccc3Br)c(=O)n(Cc3ccc(-c4ccccc4-c4noc(=O)[nH]4)cc3)c2s1 [Ex. 222, 3-[2-(3-bromo-2-thienyl)-2-oxoethyl]-6-ethyl-1-{[2′-(5-oxo-4,5-dihydro-1,2,4-oxadiazol-3-yl)biphenyl-4-yl]methyl}thieno[2,3-d]pyrimidine-2,4(1H,3H)-dione] | 1.9 | 32 | –
CCc1cc2c(=O)n(CC(=O)c3ccc(OC)cc3)c(=O)n(Cc3ccc(-c4ccccc4-c4noc(O)n4)cc3Br)c2s1 [Ex. 194, 1-{[3-bromo-2′-(5-oxo-4,5-dihydro-1,2,4-oxadiazol-3-yl)biphenyl-4-yl]methyl}-6-ethyl-3-[2-(4-methoxyphenyl)-2-oxoethyl]thieno[2,3-d]pyrimidine-2,4(1H,3H)-dione potassium salt] | 1.7 | – | 34
CCc1cc2c(=O)n(CC(=O)c3ccc(Cl)s3)c(=O)n(Cc3ccc(-c4ccccc4-c4noc(=O)[nH]4)cc3)c2s1 [Ex. 150, 3-[2-(5-chloro-2-thienyl)-2-oxoethyl]-6-ethyl-1-{[2′-(5-oxo-4,5-dihydro-1,2,4-oxadiazol-3-yl)biphenyl-4-yl]methyl}thieno[2,3-d]pyrimidine-2,4(1H,3H)-dione] | 1.5 | 33 | –
CCc1cc2c(=O)n(CC(C)(C)c3ccccc3)c(=O)n(Cc3ccc(-c4ccccc4-c4noc(=O)[nH]4)cc3)c2s1 [Ex. 225, 6-ethyl-3-(2-methyl-2-phenylpropyl)-1-{[2′-(5-oxo-4,5-dihydro-1,2,4-oxadiazol-3-yl)biphenyl-4-yl]methyl}thieno[2,3-d]pyrimidine-2,4(1H,3H)-dione] | 1.6 | 39 | –
CCc1cc2c(=O)n(CC(=O)C3CCCCC3)c(=O)n(Cc3ccc(-c4ccccc4-c4noc(=O)[nH]4)cc3)c2s1 [Ex. 205, 3-(2-cyclohexyl-2-oxoethyl)-6-ethyl-1-{[2′-(5-oxo-4,5-dihydro-1,2,4-oxadiazol-3-yl)biphenyl-4-yl]methyl}thieno[2,3-d]pyrimidine-2,4(1H,3H)-dione] | 1.5 | 69 | –
CCc1cc2c(=O)n(CC(=O)C34CC5CC(CC(C5)C3)C4)c(=O)n(Cc3ccc(-c4ccccc4-c4noc(=O)[nH]4)cc3)c2s1 [Ex. 132, 3-[2-(1-adamantyl)-2-oxoethyl]-6-ethyl-1-{[2′-(5-oxo-4,5-dihydro-1,2,4-oxadiazol-3-yl)biphenyl-4-yl]methyl}thieno[2,3-d]pyrimidine-2,4(1H,3H)-dione] | 1.7 | 50 | –
CCc1cc2c(=O)n(CC(=O)c3ccccc3OC)c(=O)n(Cc3ccc(-c4ccccc4-c4noc(O)n4)cc3)c2s1 [Ex. 109, 6-ethyl-3-[2-(2-methoxyphenyl)-2-oxoethyl]-1-{[2′-(5-oxo-4,5-dihydro-1,2,4-oxadiazol-3-yl)biphenyl-4-yl]methyl}thieno[2,3-d]pyrimidine-2,4(1H,3H)-dione potassium salt] | 1.4 | – | 64
O=c1[nH]c(-c2ccccc2-c2ccc(Cn3c(=O)n(CCc4cccc(F)c4)c(=O)c4cc(CC(F)(F)F)sc43)cc2)no1 [Ex. 60, 3-[2-(3-fluorophenyl)ethyl]-1-{[2′-(5-oxo-4,5-dihydro-1,2,4-oxadiazol-3-yl)biphenyl-4-yl]methyl}-6-(2,2,2-trifluoroethyl)thieno[2,3-d]pyrimidine-2,4(1H,3H)-dione] | 1 | 42 | –
